Results on six compounds are retold here after patent US11896612B2, “Resurrection of antibiotics that MRSA resists by silver-doped bioactive glass-ceramic particles” (Board of Trustees of Michigan State University, priority 2019, dated 2024).

“Also recorded” adds a separate entry of the source.

Series [1] relates to human mesenchymal stem cells (hBMSC). In words: Proliferation of human mesenchymal stem cells, CCK-8. The class given is cell-based. Particulars: 0.2 mg/mL Ag2O in transwell, 4 days exposure. The protocol: Primary bone-marrow derived human mesenchymal stem cells (hBMSC) isolated from healthy donor were obtained from the Institute of Regenerative Medicine, Texas A&M University. Frozen vials of cells were thawed and cultured a in α-MEM supplemented with 16% fetal bovine serum, 1% Antibiotic-Antimycotic and 1% L-glutamine (hereafter, growth medium) in a humidified 37° C./5% CO2 incubator. Cells were expanded until 90% confluence to a final passage. Cells were enzymatically lifted, centrifuged for 5 min and re-suspended fresh media. Cells were seeded at a density of 15×10^3 cells/mL on each well of 24-well plate by pipetting 0.5 mL/well. After 24 h, Ag-BGN (5, 10 and 20 mg/mL) were transferred to porous transwells and inside the wells to treat cell for 2, 4, 6, 8 and 10 days. The results were compared to a positive control consisting on cell immersed only in media and a negative control consisting on cells treated with Ag2O exposed using a porous transwell. […]
After each time point, cell viability and proliferation were assessed introducing a CCK-8 kit solution in the wells after removing the transwells. After 2 h, […] were drawn and placed in a 96 well plate and its optical density was measured at 470 nm wavelength. […]

Series [2] relates to methicillin-resistant S. aureus USA300 JE2. In words: Antibacterial test: CFU enumeration of MRSA suspended in PBS (growth-arrested). It is filed as cell-based, Staphylococcus aureus. The settings on record: 24 hours; for bacterial inhibition by antibiotic alone: PBS, static, oxacillin 0.1-50 μg/ml, vancomycin up to 10 mg/ml, fosfomycin 0.05-50 μg/ml, gentamicin 0.01 μg/ml. The protocol: All experiments are conducted using the laboratory derived methicillin-resistant S. aureus USA300 JE2. Cells are streaked for isolation on tryptic soy agar (TSA) and cultured at 37° C. overnight. An isolated colony is then grown in broth (TSB), shaking at 225 rpm at 37° C. overnight. Next, 1 mL solution of MRSA in PBS, normalized to an optical density (OD600 nm) equal to 1 (equivalent to 10^8 CFU/mL) is prepared. The bacterial suspension is mixed in a 1:1 volume ratio, with each of the solutions containing twofold the final concentration of Ag-BG, antibiotic, or the indicated Ag-BG/antibiotic combination. An untreated control is also prepared by mixing the bacterial suspension in a 1:1 volume ratio with PBS.
Bacterial suspensions are placed in a 37° C. incubator for the indicated time. At each time point, an aliquot of the bacterial suspension is removed to enumerate colony forming units (CFU) of the bacteria via serial dilution and plating on TSA. All plates are incubated at 37° C. Quantification of CFU are performed in biological and technical triplicate. Measurements are repeated three times. Standard deviation is indicated as error bars. Statistical analysis is performed using the paired Student's t-test, two tailed, n=9 and p<0.05.
The bactericidal properties of Ag-BG alone, vancomycin alone (vanc) and the combination of Ag-BG with vancomycin (Ag-BG/vanc) were studied against laboratory-derived methicillin-resistant S. aureus (MRSA) USA300 JE241. The bacteria cells were prepared by isolation of a single colony, followed by its inoculation in tryptic soy broth overnight at 37° C. A bacterial suspension was prepared by adjusting the concentration of the overnight culture to 108 colony forming units (CFU)/mL in Phosphate Buffered Saline (PBS). Then, the bacterial suspension was mixed 1:1 with the corresponding treatment (Ag-BG, Ag-BG/vanc or vanc) to a final volume of 1 mL. A negative control was prepared by suspending bacteria 1:1 in PBS. After 24 h of incubation at 37° C., […] of suspension were drawn from the mixture for CFU enumeration in tryptic soy agar plates. The effect of the treatments was evaluated based on the decrease of CFU compared to the negative control. Quantification of CFU was performed in biological and technical triplicates.
Vancomycin (molecular formula: C66H75C12N9O24·HCl, Vancomycin hydrochloride) is a cell-wall targeting antibiotic with no effect against MRSA under growth-arrested conditions and was selected for this example. Here, the concentration dependency of this synergism was evaluated by exposing MRSA to different combinations of Ag-BG/vanc. Two experimental set-ups were considered. Initially, 0.5 mg/mL of vancomycin were delivered together with 1.25, 2.5, 3.75 or 6.5 mg/mL of Ag-BG and then, 2.5 mg/mL of Ag-BG were combined with 0.1, 0.3, 0.5 and 1 mg/mL of vancomycin. The Ag-BG powder was sterilized using UV radiation before exposure to bacteria. The antibiotic treatment was prepared by dilution of vancomycin powder at different concentrations in PBS, and the Ag-BG/vanc samples were prepared by mixing Ag-BG powder with the corresponding vancomycin solution.

Series [3] deals with MRSA. In words: TEM and SEM imaging of MRSA after exposure. The class given is cell-based, Staphylococcus aureus. The settings on record: 24 hours exposure in PBS. The protocol: After 24 hours of incubation, solutions are prepared for studies with TEM to observe the morphology and ultrastructural properties of bacteria in each of the tested groups. The cultures are centrifuged and fixed using Karnovsky fixative, consisting of 2.5% glutaraldehyde, 2.5% paraformaldehyde and 0.1 M cacodylate buffer dissolved in deionized water. In the cases of the tested groups with Ag-BG particles, the particles are removed by allowing them to settle to the bottom of the Eppendorf microcentrifuge tubes before centrifugation and fixation. Bacteria pellets are suspended and incubated in fixative for 2 hours at room temperature. Next, the suspensions are centrifuged to remove the fixative. To capture bacteria in a solid matrix, a drop of a 2% agarose deionized water solution is added to the cell pellet. After the agarose solidifies, the matrix is washed three times at room temperature for 15 minutes with 0.1 M cacodylate buffer. A solution of 2% osmium tetroxide is used to stain the bacterial cells for 1 hour at the post-fixation stage. Subsequently, the cubes are washed with deionized water. Dehydration is done by a series of different concentrations of acetone: 25%, 50%, 75%, and 100%. Next, Spurr resin is infiltrated in a series of dilutions in acetone (acetone: resin): 3:1, 1:1, and 100% resin for two days. The cells are embedded in 100% Spurr resin at 60° C. for 24 hours and then, thin sections of less than 100 nm thickness are obtained by ultramicrotome (RMC MYX ultramicrotome) with glass knives and are mounted in bare copper grids. Positive staining is done with 2% uranyl acetate for 7 minutes and lead citrate for 3 minutes. Finally, samples are observed at 100 kV in a JEOL 100CX microscope.
Bacterial morphology upon exposure to Ag-BG particles is studied using SEM. Cells are prepared after 12 hours of exposure. In this case, the Ag-BG particles remain in the solution with the cells and are fixed using 2.5% glutaraldehyde, 2.5% paraformaldehyde, and 0.1 M cacodylate buffer dissolved in deionized water. […]

In series [4] the test system is MRSA. The series is described as follows: Vancomycin susceptibility of MRSA cultured in tryptic soy broth (TSB). It is filed as cell-based, Staphylococcus aureus. How it is done: Oxacillin and fosfomycin are used at 0.1 and 0.05 μg/ml, respectively—a concentration that is considerably lower than their MIC. Vancomycin (molecular formula: C66H75C12N9O24·HCl, Vancomycin hydrochloride) is selected due to a mechanism of action that is dependent on cell growth. MRSA is susceptible to 0.47 μg/ml of vancomycin when cultured in tryptic soy broth (TSB). However, exposure to vancomycin in growth arrested conditions, such as suspension in phosphate buffered saline (PBS), enhances tolerance to the antibiotic. Cells are exposed to 0.5 mg/ml vancomycin in PBS. […] All antibiotics are purchased from Sigma Aldrich in powder USP Reference Standard and are used without further purification.

The subject of another series is eukaryotic cells. The settings on record: cited from earlier work.
For a further series, the system named is bacteria. Particulars: cited from earlier work.

For the compound `[Ag+].[Ag+].[O-2]` [Ag2O], the cell viability result in series [1] is “not viable”.
Consider `C[C@@H]1O[C@@H]1P(=O)(O)O` [fosfomycin, Fosfomycin], for which the “bacterial inhibition by antibiotic alone” value in series [2] is listed as “resistant”. For the same compound, the “bacterial ultrastructure by TEM” value in the series on MRSA [3] is reported as “intact cells”.
For `Cc1onc(-c2ccccc2)c1C(=O)N[C@@H]1C(=O)N2[C@@H]1SC(C)(C)[C@@H]2C(=O)O` [oxacillin, Oxacillin], in that order: “no demonstrable bacterial inhibition” and “intact cells”.
As for `CN[C@H](CC(C)C)C(=O)N[C@H]1C(=O)N[C@@H](CC(N)=O)C(=O)N[C@H]2C(=O)N[C@H]3C(=O)N[C@H](C(=O)N[C@H](C(=O)O)c4cc(O)cc(O)c4-c4cc3ccc4O)[C@H](O)c3ccc(c(Cl)c3)Oc3cc2cc(c3O[C@@H]2O[C@H](CO)[C@@H](O)[C@H](O)[C@H]2O[C@H]2C[C@](C)(N)[C@H](O)[C@H](C)O2)Oc2ccc(cc2Cl)[C@H]1O` [vancomycin, Vancomycin], in series [2], the “bacterial inhibition by antibiotic alone” value was “not lethal; also recorded: no reduction of CFU/mL”. In addition, in the series on MRSA [4], the “concentration to which MRSA is susceptible” value is 0.47 µg/mL. Besides, in the series on MRSA [3], the “bacterial ultrastructure by TEM” value is “intact cells”.
As for Gentamicin, the “bacterial inhibition by antibiotic alone” value in series [2] was “does not inhibit significantly”. Besides, the “concentration that significantly inhibits MRSA” value in series [2] (static conditions) is reported as “higher than 0.1 μg/ml”.
Take silver ions: the “lowest concentration that induces cytotoxicity” value in the series with eukaryotic cells was 1.6 ppm. In the series with bacteria, the minimum bactericidal concentration is listed as 0.1 ppm.
